Reference: US20090012136A1, “UNIT DOSE FORMULATIONS AND METHODS OF TREATING AND PREVENTING THROMBOSIS WITH THROMBOXANE RECEPTOR ANTAGONISTS” (PORTOLA PHARMACEUTICALS, INC., priority 2007, published 2009)

Assays:
[1] = tested on: platelets; assay: Collagen-induced platelet aggregation by light transmittance aggregometry (LTA) in PRP (Example 1); format: cell-based, human
Experimental: (§1) Blood from healthy individuals (n=6-7) was obtained by venipuncture and anticoagulated with FXa inhibitor. Platelet rich plasma (PRP) was obtained, and LTA was performed by standard procedures, initiating platelet aggregation with U-46619 (10 μM) or collagen (4 μg/ml).
LTA was performed on PRP samples using collagen (4 micrograms/ml) to induce platelet aggregation.

[2] = hundreds of randomized clinical trials; BMJ 324:71-86 (2002); cited from earlier work
[3] = tested on: platelets; assay: Collagen-induced platelet aggregation LTA, healthy volunteers and AERD patients (Example 2); format: cell-based, human; conditions: for anti-aggregatory activity in collagen-induced platelet aggregation assay: FIG. 5
Experimental: (§2) Light transmittance aggregometry (LTA) assays were performed by standard procedures, initiating platelet aggregation with collagen or arachidonic acid.
(§3) Assays were performed pre- (+/−ifetroban, spiked in vitro) and post-aspirin desensitization.

[4] = tested on: platelets; assay: Real time perfusion chamber assay, blood perfused through collagen-coated capillaries (Example 1); format: cell-based, human; conditions: non-aspirinated blood, ifetroban added in vitro; aspirin 325 mg per day for 2 weeks; FIG. 3
[5] = tested on: platelets; assay: U-46619-induced platelet aggregation by light transmittance aggregometry (LTA) in PRP; format: cell-based, human
Experimental: as §1

[6] = tested on: platelets; assay: Real time perfusion chamber assay (RTTP), healthy volunteers and AERD patients (Example 2); format: cell-based, human; conditions: 100 nM or 350 nM spiked in vitro
Experimental: Real time perfusion chamber assays (RTTP) were performed using blood anticoagulated with Fxa inhibitor (10 uM 034) and perfused through collagen-coated capillaries (1100/sec). Thrombus formation on the collagen surface was monitored in real time using fluorescence microscopy to detect fluorescently labeled (R6G) platelets.
as §3

[7] = tested on: platelets; assay: Arachidonic acid-induced platelet aggregation LTA (Example 2); format: cell-based, human; conditions: all three tested doses (1 μM, 350 nM, 100 nM); healthy volunteers and AERD patients; FIGS. 7A and 7B
Experimental: as §2, §3

In the case of `CC(=O)Oc1ccccc1C(=O)O` [aspirin], the “reduction of the extent of collagen-induced platelet aggregation v. baseline (mean+sem)” value ([1]; twenty healthy individuals, aspirin 325 mg/day for two weeks, collagen 4 micrograms/ml, PRP) is given as 39+/−6.0% and the “reduction in adverse events” value [2] is given as 20-25%.

With `CCCCCNC(=O)c1coc([C@H]2[C@@H](Cc3ccccc3CCC(=O)[O-])[C@@H]3CC[C@H]2O3)n1.[Na+]` [ifetroban, [1S-(1α,2α,3α,4α)]-2-[[3-[4-[(pentylamino)carbonyl]-2-oxazolyl]-7-oxabicyclo[2.2.1]hept-2-yl]methyl]benzenepropanoic acid] the “anti-aggregatory activity in collagen-induced platelet aggregation assay” value ([3]; AERD patients) was “significant anti-aggregatory activity”, the “concentration reproducing aspirin effects on collagen-induced platelet aggregation and thrombosis” value ([3]; AERD patients, FIG. 5B) was greater than 100 nM and the “concentration showing statistically significant inhibition of collagen-induced platelet aggregation” value ([3]; AERD patients, FIG. 5B) was greater than 100 nM. The “inhibition of platelet aggregation compared with aspirin” value ([3]; healthy volunteers, 100 nM ifetroban) was “significantly lower inhibition of platelet aggregation than aspirin”, the “anti-aggregatory activity in collagen-induced platelet aggregation assay” value ([3]; healthy volunteers) was “significant anti-aggregatory activity” and the “concentration showing statistically significant inhibition of collagen-induced platelet aggregation” value ([3]; normal volunteers (P=0.0281), FIG. 5A) was greater than 100 nM. The “concentration reproducing aspirin effects on collagen-induced platelet aggregation and thrombosis” value ([3]; normal volunteers, FIG. 5A) was greater than 100 nM, the “concentration in collagen-induced assay relative to that predicted by U-46619-induced assay” value ([1]; 350 nM v. 30 nM) was “approximately 10 times” and the “concentration for maximum inhibition of collagen-induced platelet aggregation” value ([1]; collagen 4 μg/ml, non-aspirinated PRP, ifetroban added in vitro, FIG. 2) was “greater than or equal to 350 nM”. For the same molecule, the “amount required to inhibit collagen-induced versus U-46619-induced platelet aggregation” value ([1]; collagen versus U-46619) was “approximately 10 fold”, the “concentration providing equivalent or superior inhibitory activity on thrombosis as aspirin” value [4] was no less than 300 nM and the “concentration that fully inhibited U-46619-induced platelet aggregation” value ([5]; U-46619 10 μM, PRP anticoagulated with FXa inhibitor, ifetroban added in vitro, FIG. 2) was greater than 30 nM. The “concentration predicted by U-46619-induced platelet aggregation assays” value ([5]; U-46619-induced platelet aggregation) was 30 nM, the “antithrombotic activity in perfusion chamber assay” value ([6]; AERD patients, FIG. 4B) was “significant antithrombotic activity” and the “antithrombotic activity in perfusion chamber assay” value ([6]; healthy volunteers, FIG. 4A) was “significant antithrombotic activity”. For the same molecule, the “effect on arachidonic acid-induced platelet aggregation” value [7] was “fully blocked”.
